Drawing on US10399945B2, “Tetrahydronaphthyl urea derivative” (MOCHIDA PHARMACEUTICAL CO., LTD., priority 2017, dated 2019), this text covers IC50 for 25 molecules.

A word on the IC50: it is the concentration that inhibits the measured activity by half. Read a low IC50 as inhibition by little substance.

For the assay, the target named is Human TrkA Protein (Homo sapiens (Human), UniProt P04629). The assay can be described thus: Evaluation of Binding Activity for Human TrkA Protein (TrkA LanthaScreen Eu Kinase Binding Assay). The note with it: TrkA enzyme, Kinase Tracer 236, TR-FRET, 60 minutes at room temperature. Here is the method: (Pharmacological Experimental Example 1): Evaluation of Binding Activity for Human TrkA Protein
Human TrkA Protein, sequence (P04629 33-796): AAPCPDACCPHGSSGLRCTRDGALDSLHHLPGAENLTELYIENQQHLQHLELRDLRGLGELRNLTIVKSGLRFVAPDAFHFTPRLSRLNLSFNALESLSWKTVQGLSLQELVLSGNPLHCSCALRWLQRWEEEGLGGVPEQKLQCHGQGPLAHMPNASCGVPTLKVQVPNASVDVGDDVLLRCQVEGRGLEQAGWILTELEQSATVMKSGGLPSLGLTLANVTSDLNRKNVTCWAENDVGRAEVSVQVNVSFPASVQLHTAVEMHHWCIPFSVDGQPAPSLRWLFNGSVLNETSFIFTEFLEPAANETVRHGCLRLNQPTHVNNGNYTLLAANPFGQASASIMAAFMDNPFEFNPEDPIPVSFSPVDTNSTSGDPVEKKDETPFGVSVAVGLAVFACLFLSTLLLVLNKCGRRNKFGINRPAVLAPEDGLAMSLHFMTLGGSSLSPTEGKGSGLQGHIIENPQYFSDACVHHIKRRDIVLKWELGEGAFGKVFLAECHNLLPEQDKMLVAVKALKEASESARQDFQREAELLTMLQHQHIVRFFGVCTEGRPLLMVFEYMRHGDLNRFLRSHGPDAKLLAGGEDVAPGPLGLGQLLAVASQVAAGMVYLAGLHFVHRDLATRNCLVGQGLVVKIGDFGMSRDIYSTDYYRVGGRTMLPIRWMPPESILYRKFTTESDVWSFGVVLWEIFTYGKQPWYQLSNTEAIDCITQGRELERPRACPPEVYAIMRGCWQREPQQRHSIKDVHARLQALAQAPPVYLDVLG
Measurement was carried out using TrkA LanthaScreen (registered trademark) Eu Kinase Binding Assay (ThermoFisher SCIENTIFIC). To a 384 well plate (Corning), 2.5 μL of the test compound having various concentrations and diluted with Kinase buffer (ThermoFisher SCIENTIFIC) and 2.5 μL of 15 nM TrkA enzyme (ThermoFisher SCIENTIFIC) were added. Moreover, […] Eu-anti-His Tag antibody (ThermoFisher SCIENTIFIC) and 5 μL of 30 nM Kinase (registered trademark) Tracer 236 (ThermoFisher SCIENTIFIC) were added, followed by reaction at room temperature for 60 minutes. After the reaction, the fluorescence intensity of Europium (Emission wavelength 615 nm) and TR-FRET (Emission wavelength 665 nm) with an excitation wavelength of 340 nm were measured with EnVision 2100 (PerkinElmer) to calculate the fluorescence ratio as the amount of the test compound and the TrkA enzyme bonded. The inhibitory activity (IC50 value) of each test compound was calculated with the fluorescence ratio of the well to which a solvent was added instead of the test compound being 0% and the fluorescence ratio of the well without addition of the TrkA protein being 100%.
In Table 1, […] mean Compounds 1 to 62 synthesized in accordance with Examples 1 to 62 described later.
In the case of `Cc1cnc(-c2ccccc2)c(NC(=O)N[C@@H]2c3ccc(Br)cc3C(C)(C)C[C@H]2O)c1` (racemic) [Compound 22, rac-1-((1R,2R)-6-bromo-2-hydroxy-4,4-dimethyl-1,2,3,4-tetrahydronaphthalen-1-yl)-3-(5-methyl-2-phenylpyridin-3-yl)urea], the IC50 is no more than 50 nM.

Take `Cc1cnc(-c2ccccc2)c(NC(=O)N[C@@H]2c3ccccc3C(C)(C)C[C@H]2O)c1` [Compound 7, 1-((1R,2R)-2-hydroxy-4,4-dimethyl-1,2,3,4-tetrahydronaphthalen-1-yl)-3-(5-methyl-2-phenylpyridin-3-yl)urea]: the IC50 is no more than 50 nM.

Molecule `Cc1cc(NC(=O)N[C@@H]2c3ccccc3C(C)(C)C[C@H]2O)c(-c2ccccc2)nc1C(=O)NCC(C)(C)O` (racemic) [Compound 25, rac-N-(2-hydroxy-2-methylpropyl)-5-(3-((1R,2R)-2-hydroxy-4,4-dimethyl-1,2,3,4-tetrahydronaphthalen-1-yl)ureido)-3-methyl-6-phenylpicolinamide] showed a half-inhibitory concentration (IC50) of no more than 50 nM.

`Cc1cnc(-c2ccccc2)c(NC(=O)N[C@@H]2c3cc(F)c(F)cc3C(C)(C)C[C@H]2O)c1` (racemic) [Compound 37a]: the IC50 is no more than 50 nM.

On to `Cc1cc(NC(=O)N[C@@H]2c3cc(F)c(F)cc3C(C)(C)C[C@H]2O)c(C2CCOCC2)nc1C(=O)NCC(C)(C)O` (racemic) [Compound 60, rac-5-(3-((1R,2R)-6,7-difluoro-2-hydroxy-4,4-dimethyl-1,2,3,4-tetrahydronaphthalen-1-yl)ureido)-N-(2-hydroxy-2-methylpropyl)-3-methyl-6-(tetrahydro-2H-pyran-4-yl)picolinamide], for which the IC50 fell in the range of 50 to 1000 nM.

Regarding `Cc1cc(NC(=O)N[C@@H]2c3cc(F)c(F)cc3C(C)(C)C[C@H]2O)c(C2CCOCC2)nc1-c1cnc(O)nc1` (racemic) [Compound 62, rac-1-((1R,2R)-6,7-difluoro-2-hydroxy-4,4-dimethyl-1,2,3,4-tetrahydronaphthalen-1-yl)-3-(6-(2-hydroxypyrimidin-5-yl)-5-methyl-2-(tetrahydro-2H-pyran-4-yl)pyridin-3-yl)urea], the IC50 lay within 50 to 1000 nM.

The molecule `Cc1cc(NC(=O)N[C@@H]2c3cc(F)c(F)cc3C(C)(C)C[C@H]2O)c(-c2ccccc2)nc1CO` (racemic) [Compound 43, rac-1-((1R,2R)-6,7-difluoro-2-hydroxy-4,4-dimethyl-1,2,3,4-tetrahydronaphthalen-1-yl)-3-(6-(hydroxymethyl)-5-methyl-2-phenylpyridin-3-yl)urea] registered an IC50 of no more than 50 nM.

For `CC1(C)C[C@@H](O)[C@H](NC(=O)Nc2cccnc2-c2ccccc2)c2cc(F)c(F)cc21` (racemic) [Compound 36, rac-1-((1R,2R)-6,7-difluoro-2-hydroxy-4,4-dimethyl-1,2,3,4-tetrahydronaphthalen-1-yl)-3-(2-phenylpyridin-3-yl)urea], the IC50 is no more than 50 nM.

In the case of `CC1(C)C[C@@H](O)[C@H](NC(=O)Nc2cccnc2-c2ccccc2)c2ccccc21` (racemic) [Compound 1, rac-1-((1R,2R)-2-hydroxy-4,4-dimethyl-1,2,3,4-tetrahydronaphthalen-1-yl)-3-(2-phenylpyridin-3-yl)urea], the IC50 was no more than 50 nM.

Molecule `Cc1cc(NC(=O)N[C@@H]2c3ccccc3C(C)(C)C[C@H]2O)c(C2CCOCC2)nc1C(N)=O` (racemic) [Compound 27, rac-5-(3-((1R,2R)-2-hydroxy-4,4-dimethyl-1,2,3,4-tetrahydronaphthalen-1-yl)ureido)-3-methyl-6-(tetrahydro-2H-pyran-4-yl)picolinamide] returned an IC50 of 50 to 1000 nM.

In turn, `Cc1cc(NC(=O)N[C@@H]2c3ccccc3C(C)(C)C[C@H]2O)c(C2CCOCC2)nc1-c1ccc(O)nc1` (racemic) [Compound 31, rac-1-(6′-hydroxy-3-methyl-6-(tetrahydro-2H-pyran-4-yl)-[2,3′-bipyridin]-5-yl)-3-((1R,2R)-2-hydroxy-4,4-dimethyl-1,2,3,4-tetrahydronaphthalen-1-yl)urea] came in with an IC50 of no more than 50 nM.

`Cc1ccc(-c2nc(-c3ccccc3)c(NC(=O)N[C@@H]3c4ccccc4C(C)(C)C[C@H]3O)cc2C)cn1` [Compound 12, 1-(3,6′-dimethyl-6-phenyl-[2,3′-bipyridin]-5-yl)-3-((1R,2R)-2-hydroxy-4,4-dimethyl-1,2,3,4-tetrahydronaphthalen-1-yl)urea] registered an IC50 of no more than 50 nM.

Regarding `Cc1cc(NC(=O)N[C@@H]2c3cc(F)c(F)cc3C(C)(C)C[C@H]2O)c(-c2ccccc2)nc1C(=O)NCC(C)(C)O` (racemic) [Compound 42, rac-5-(3-((1R,2R)-6,7-difluoro-2-hydroxy-4,4-dimethyl-1,2,3,4-tetrahydronaphthalen-1-yl)ureido)-N-(2-hydroxy-2-methylpropyl)-3-methyl-6-phenylpicolinamide], the IC50 was no more than 50 nM.

`Cc1cc(NC(=O)N[C@@H]2c3ccccc3C(C)(C)C[C@H]2O)c(-c2ccccc2)nc1-c1cnc(O)nc1` [Compound 19, 1-((1R,2R)-2-hydroxy-4,4-dimethyl-1,2,3,4-tetrahydronaphthalen-1-yl)-3-(6-(2-hydroxypyrimidin-5-yl)-5-methyl-2-phenylpyridin-3-yl)urea] returned a half-inhibitory concentration (IC50) of no more than 50 nM.

Molecule `Cc1ccc(NC(=O)N[C@@H]2c3cc(F)c(F)cc3C(C)(C)C[C@H]2O)c(-c2ccccc2)n1` (racemic) [Compound 39, rac-1-((1R,2R)-6,7-difluoro-2-hydroxy-4,4-dimethyl-1,2,3,4-tetrahydronaphthalen-1-yl)-3-(6-methyl-2-phenylpyridin-3-yl)urea] had an IC50 of no more than 50 nM.

Molecule `Cc1nnc(CNC(=O)c2nc(-c3ccccc3)c(NC(=O)N[C@@H]3c4cc(F)c(F)cc4C(C)(C)C[C@H]3O)cc2C)o1` (racemic) [Compound 41, rac-5-(3-((1R,2R)-6,7-difluoro-2-hydroxy-4,4-dimethyl-1,2,3,4-tetrahydronaphthalen-1-yl)ureido)-3-methyl-N-((5-methyl-1,3,4-oxadiazol-2-yl)methyl)-6-phenylpicolinamide] gave an IC50 of no more than 50 nM.

With `Cc1cc(NC(=O)N[C@@H]2c3cc(F)c(F)cc3C(C)(C)C[C@H]2O)c(-c2ccccc2)nc1-c1ccc(CO)nc1` (racemic) [Compound 55, rac-1-((1R,2R)-6,7-difluoro-2-hydroxy-4,4-dimethyl-1,2,3,4-tetrahydronaphthalen-1-yl)-3-(6′-(hydroxymethyl)-3-methyl-6-phenyl-[2,3′-bipyridin]-5-yl)urea], the IC50 is no more than 50 nM.

In turn, `Cc1cc(NC(=O)N[C@@H]2c3ccccc3C(C)(C)C[C@H]2O)c(C2CCOCC2)nc1-c1cnn(C)c1` (racemic) [Compound 29, rac-1-((1R,2R)-2-hydroxy-4,4-dimethyl-1,2,3,4-tetrahydronaphthalen-1-yl)-3-(5-methyl-6-(1-methyl-1H-pyrazol-4-yl)-2-(tetrahydro-2H-pyran-4-yl)pyridin-3-yl)urea] gave an IC50 of no more than 50 nM.

For `Cc1ncc(-c2nc(C3CCOCC3)c(NC(=O)N[C@@H]3c4ccccc4C(C)(C)C[C@H]3O)cc2C)cn1` (racemic) [Compound 28, rac-1-((1R,2R)-2-hydroxy-4,4-dimethyl-1,2,3,4-tetrahydronaphthalen-1-yl)-3-(5-methyl-6-(2-methylpyrimidin-5-yl)-2-(tetrahydro-2H-pyran-4-yl)pyridin-3-yl)urea], the IC50 is no more than 50 nM.

In the case of `Cc1ncc(-c2nc(C3CCOCC3)c(NC(=O)N[C@@H]3c4cc(F)c(F)cc4C(C)(C)C[C@H]3O)cc2C)cn1` (racemic) [Compound 59, rac-1-((1R,2R)-6,7-difluoro-2-hydroxy-4,4-dimethyl-1,2,3,4-tetrahydronaphthalen-1-yl)-3-(5-methyl-6-(2-methylpyrimidin-5-yl)-2-(tetrahydro-2H-pyran-4-yl)pyridin-3-yl) urea], the IC50 was 50 to 1000 nM.

In the case of `Cc1ncc(-c2nc(-c3ccccc3)c(NC(=O)N[C@@H]3c4ccccc4C(C)(C)C[C@H]3O)cc2C)cn1` (racemic) [Compound 3, rac-1-((1R,2R)-2-hydroxy-4,4-dimethyl-1,2,3,4-tetrahydronaphthalen-1-yl)-3-(5-methyl-6-(2-methylpyrimidin-5-yl)-2-phenylpyridin-3-yl)urea], the IC50 was no more than 50 nM.

As to `Cc1ncc(-c2nc(-c3ccccc3)c(NC(=O)N[C@@H]3c4cc(F)c(F)cc4C(C)(C)C[C@H]3O)cc2C)cn1` (racemic) [Compound 44, rac-1-((1R,2R)-6,7-difluoro-2-hydroxy-4,4-dimethyl-1,2,3,4-tetrahydronaphthalen-1-yl)-3-(5-methyl-6-(2-methylpyrimidin-5-yl)-2-phenylpyridin-3-yl)urea], the IC50 was no more than 50 nM.

`Cc1cnc(-c2ccccc2)c(NC(=O)N[C@@H]2c3ccccc3C(C)(C)C[C@H]2O)c1` (racemic) [Compound 2, rac-1-((1R,2R)-2-hydroxy-4,4-dimethyl-1,2,3,4-tetrahydronaphthalen-1-yl)-3-(5-methyl-2-phenylpyridin-3-yl)urea]: the IC50 was no more than 50 nM.

`Cc1ncc(-c2nc(-c3ccccc3)c(NC(=O)N[C@@H]3c4ccccc4C(C)(C)C[C@H]3O)cc2C)cn1` [Compound 9, 1-((1R,2R)-2-hydroxy-4,4-dimethyl-1,2,3,4-tetrahydronaphthalen-1-yl)-3-(5-methyl-6-(2-methylpyrimidin-5-yl)-2-phenylpyridin-3-yl)urea] gave an IC50 of no more than 50 nM.

Regarding `Cc1ncc(-c2nc(-c3ccccc3)c(NC(=O)N[C@@H]3c4cc(F)c(F)cc4C(C)(C)C[C@H]3O)cc2C)cn1` (racemic) [Compound 44a], the 50% inhibitory concentration (IC50) is no more than 50 nM.
